Where “and” joins values, the source holds several entries; their conditions need not be identical. Equal values may be shown once.

Results on seven compounds are retold here after patent US12139461B1, “Piperidine compounds as PDE5 inhibitors” (KING SAUD UNIVERSITY, priority 2024, dated 2024).

A short description of data set [1]: Evaluation of LD50 (acute oral toxicity). To be noted: rat, in vivo, po; single intragastric administration, rats, 24 h. It counts as in vivo. The source says: (§1) Healthy rats were divided into groups of 10 rats and maintained as described above. Rats had free access to water and food, except for a short fasting period before the treatment with the single oral dose of compounds C9, C14 and C21 or the solvent. The compounds were formulated with 1% CMC. An approximate LD50 was initially determined in a pilot study by a so called ‘staircase method’ using a small number of animals (2 each dose) and increasing doses of tested compounds. Three doses were then chosen for the determination of oral median lethal dose (LDso) (500, 1000 and 2000 mg/kg) and given to three groups of rats (10 in each group). Another group of rats (6 rats) was given equal amounts of 1% CMC orally and served as a control group. […] After 24 hours, the number of dead rats was counted in each group. The percentage of animals that had died at each dose level was transformed to probits, and then LD50 was determined by the method of Miller and Tainter, 1944 as described previously (Randhawa M A, J Ayub Med Coll Abbottabad 21 (2009) 184-185, the contents of which are hereby incorporated by reference in their entirety).

In the next data set the test system is rats. Nature of the data set: Evaluation of LD50 (acute oral toxicity). Type of data set: in vivo. To be noted: single oral dose 500-2000 mg/kg.
Source text: as §1

Data set [2] addresses Phosphodiesterase type 5 (PDE5) (Homo sapiens (Human), UniProt O76074). Nature of the data set: In vitro phosphodiesterase type 5 (PDE5) inhibition assay. To be noted: purified PDE5, IMAP FP assay. Type of data set: biochemical.
The subject of a further data set is male rats. Put plainly: Copulatory behavior testing. To be noted: 5 mg/kg oral; for copulatory efficiency (CE): CE=(IF/MF)x100; for mean intromission interval (MII): MII=EL/IF. Type of data set: in vivo, rat. Here is the method:
Sexually mature Wistar albino male and female rats weighing 150-180 g (10-14 weeks old) were used in our study. Males were trained for sexual behavior with estrus females, that is, two hours a day for one week, before the investigations. Females were brought into the estrous phase artificially by sequential injection of estradiol benzoate (Sigma) (25 μg/animal) and progesterone (Sigma) (250 μg/animal) subcutaneously, 48 and 4 hours before pairing, respectively. Only those sexually active animals were used subsequently in the study. Sexually active rats were isolated and housed in separate cages at room temperature (24±2° C.) on a reversed day/night cycle with a relative humidity of 50-55% during the experimental period. All sexual studies were performed in a calm laboratory condition under subdued light. For the toxicity study, adult Wistar albino male rats were used separately. Rats were obtained from the Experimental Animal Care Center, College of Pharmacy, King Saud University. Animals were fed with a standard pellet diet and provided water ad libitum. All experiments were performed per the protocols and recommendations of the NIH Guide for the Care and Use of Laboratory Animals and the legal requirements of King Saud University for investigations on humans and animals.
Based on a preliminary study to select the appropriate dose for the promising synthesized compounds, the compounds were administered separately to sexually experienced male rats by oral gavage at 5 mg/kg in a 0.5% sodium carboxymethyl cellulose (CMC) vehicle. […] All solutions were freshly prepared at a concentration that allowed the administration of 1 ml/kg.
After drug treatment, rats were housed separately in transparent cages for acclimation. Thirty minutes after drug treatment, a sexually receptive female rat with estrous phase was introduced in each cage for 30 min and the following parameters of the copulatory behavior were recorded: namely mount latency (ML; time from introduction of the female until the first mount with or without penile insertion, it measures the degree of arousal or sexual interest or libido of the male), mount frequency (MF; the number of mounts until ejaculation, it is a measure of the degree of the male's sexual interest or libido), intromission latency (IL; time from introduction of the female until the first intromission, it measures the degree of sexual excitement and erection), intromission frequency (IF; number of vaginal penetrations until ejaculation, it measures the degree of erection), ejaculation latency (EL; time from the first intromission until ejaculation, it determines the excellent organization of copulation in rats) and post-ejaculatory interval (PEI; time interval between an ejaculation and the following first mount, it measures the refractory period that comes after ejaculation). Latency values represent the number of seconds that elapses from the introduction of the female into the copulatory arena until the male executes the first mount, intromission or ejaculation. Frequency values represent the number of ejaculations, mounts or intromission recorded during the copulatory test.
Depending on these parameters, the following can be calculated: Copulatory efficiency (CE)=(IF/MF)×100 and mean intromission interval (MII)=EL/IF as previously described (Aydogan F. et al., J Ethnopharmacol 257 (2020) 112868; Besong E B. et al., Biochem Res Int 2018 (2018) 2869727, the contents of each of which are hereby incorporated by reference in their entirety). Experiments were repeated blindly three times using new fresh (unused) animals in each experiment.

Data set [3] relates to sexually experienced male rats. Nature of the data set: Penile erection index (noncontact erection test). It counts as in vivo, rat. The protocol:
The penile erection index is an established means of determining the erection promoting properties of a substance. Determination of penile erection in a noncontact position was calculated as reported previously (Haripriya V M. et al., Andrologia 51 (2019) e13180; Sharma V. et al., J Ethnopharmacol 143 (2012) 201-206, the contents of each of which are hereby incorporated by reference in their entirety). The sexually experienced male rats of all groups were given the treatment 30 minutes before experimentation. The number of animals for each dose was ten rats in each experiment. […] The results shown are the average of three separate experiments. Control animals were given 0.5% CMC as a vehicle.
The rats of each group were placed in the observation cages (five at a time) divided into half by two sheets of metal mesh, preventing contact but allowing auditory, visual and olfactory stimuli. After a 5-min adaptation period, the test was started by placing an estrus female on the other side of the cage. Penile erection was recorded when the rats bent down to lick their erect penis. Homosexual mounting was also counted when a male rat mounted another male rat performing pelvic thrusts with or without a penile erection. […] The effective dose ED50 (the dose required to give 50% responding rats) for examined compounds was calculated using linear regression analysis by GraphPad software with the proportion of responding rats as the input data and expressed as μmol/kg.

The test system of another data set is male diabetic rats. Put plainly: Copulatory behavior testing in diabetic animals. Type of data set: in vivo, rat. To be noted: 5 mg/kg/day for 14 days. Here is the method:
Nearly 90% of the population suffering from diabetic conditions report disturbances in sexual function, encompassing a decrease in libido, impotence and infertility (Kamenov Z A, Exp Clin Endocrinol Diabetes 123 (2015) 141-158). Diabetic was induced in experimental animals by intraperitoneal administration of streptozotocin in separate groups of male animals. Diabetes was induced by a single intraperitoneal injection of freshly prepared 65 mg/kg streptozotocin in […] citrate buffer, pH 4.4 (Mendez J D and Ramos H G, Arch Med Res 25 (1994) 367-375). All rats receiving streptozotocin were given a 10% sucrose solution in the first 48 h after injection to prevent hypoglycemia. After 72 h of streptozotocin administration, rats with fasting serum glucose more than 350 mg/dL were considered as diabetic. Glibenclamide was given by oral gavage once a day (10 mg/kg/day) to diabetic animals to avoid mortality throughout the investigation (Abdel-Aziz A A-M. et al., Eur J Med Chem 46 (2011) 4324-4329). The male rats were trained for sexual behavior study before induction of diabetes and treatment, as mentioned above. Diabetic rats were given a daily oral dose of 5 mg/kg of compounds C9, C14 and C21 for 14 consecutive days. The sexual behavior of the animals was assessed on day 15 of the treatment. The copulatory behavior testing was performed, and CE and MII were calculated.

For `O=S(=O)(c1ccc(Cl)cc1Cl)N1CCC(c2ccccc2)CC1` [Compound C9, 1-((2,4-Dichlorophenyl)sulfonyl)-4-phenylpiperidine], the LD50 at 24 h in data set [1] was > 2000 mg/kg. Besides, in the data set on rats, the “toxic symptoms after oral dosing” value is “gradually became drowsy and less responsive”. The compound also registered an IC50 in data set [2] of 47.9 nM. In addition, in the data set with male rats, the “efficacy in improving copulatory behavior” value is “more pronounced”, the “ejaculation latency (EL)” value is 368.3 s, the “intromission frequency (IF)” value amounted to 12.8 and the “intromission latency (IL)” value came out at 177.6 s. In addition, in the data set with male rats, the “mount frequency (MF)” value was 23.6, the “mount latency (ML)” value turned out to be 74.6 s, the “post-ejaculatory interval (PEI)” value came out at 355.6 s and the “copulatory efficiency (CE)” value is on record as 55.2%. Moreover, in the data set on male rats, the “mean intromission interval (MII)” value is 29.0. The erectile response result in data set [3] (oral treatment, 1.25-5 mg/kg) is recorded as “statistically elevated”. For the same compound, the “penile erection index (PEI)” value in data set [3] (oral, dose 1.25 mg/kg) stood at 23.3 ± 3.3. Besides, the “penile erection index (PEI)” value in data set [3] (oral, dose 2.5 mg/kg) worked out at 53.3 ± 8.8. Further, the “penile erection index (PEI)” value in data set [3] (oral, dose 5 mg/kg) came out at 60.0 ± 5.7. Further, in the data set with male diabetic rats (male diabetic rats), the “ejaculation latency (EL)” value was 223.3 s, the “intromission frequency (IF)” value came to 4.3, the “intromission latency (IL)” value came out at 305.1 s and the “mount frequency (MF)” value was 10.6. For the same compound, in the data set with male diabetic rats (male diabetic rats), the “mount latency (ML)” value is 137.1 s and the “post-ejaculatory interval (PEI)” value came to 552.8 s. Further, the “copulatory efficiency (CE)” value in the data set on male diabetic rats (male diabetic rats, CE=(IF/MF)x100) was determined as 40.9%. Besides, the “mean intromission interval (MII)” value in the data set on male diabetic rats (male diabetic rats, MII=EL/IF) stood at 53.1. Further, in the data set with male diabetic rats (versus diabetic control rats), the “sexual function in diabetic rats” value is listed as “restored”.
In turn, `O=S(=O)(c1ccc(Cl)c(Cl)c1)N1CCC(c2ccccc2)CC1` [Compound C11, 1-((3,4-Dichlorophenyl)sulfonyl)-4-phenylpiperidine] displayed a melting point of 217 to 219 °C. Moreover, the IC50 in data set [2] is 56.7 nM and 56.8 nM. Moreover, in the data set on male rats, the “efficacy in improving copulatory behavior” value was “more pronounced”, the “ejaculation latency (EL)” value came out at 318.1 s, the “intromission frequency (IF)” value amounted to 8.3 and the “intromission latency (IL)” value amounted to 205.5 s. In the data set with male rats, the “mount frequency (MF)” value was found to be 17.1, the “mount latency (ML)” value is 94.6 s, the “post-ejaculatory interval (PEI)” value was determined as 393.5 s and the “copulatory efficiency (CE)” value turned out to be 48.5%. In the data set on male rats, the “mean intromission interval (MII)” value was 39.6. Moreover, in data set [3] (Rattus norvegicus, oral, linear regression of proportion of responding rats, read-out: effective dose ED50 (dose required to give 50% responding rats)), the ED50 came to 12.7 µmol/kg.
As for `O=C(CN1CCC(Cc2ccccc2)CC1)NCc1ccc(F)cc1` [Compound C16, 2-(4-Benzylpiperidin-1-yl)-N-(4-fluorobenzyl)acetamide], the melting point was in the range of 72 to 74 °C. In data set [2], the IC50 is 484 ± 9.44 nM.
Taken in the same sequence, the figures for `O=S(=O)(c1ccc(Cl)c(Cl)c1)N1CCC(Cc2ccccc2)CC1` [Compound C19, 4-Benzyl-1-((3,4-dichlorophenyl)sulfonyl)piperidine] were 166 to 168 °C and 102 ± 1.99 nM.
In turn, `COc1ccccc1S(=O)(=O)N1CCC(Cc2ccccc2)CC1` [Compound C23, 4-Benzyl-1-((2-methoxyphenyl)sulfonyl)piperidine] yielded a melting point of 95 to 97 °C. This compound also displayed an IC50 in data set [2] of 207 ± 4.03 nM.
`Cc1cc(C)c(S(=O)(=O)N2CCC(Cc3ccccc3)CC2)c(C)c1` [Compound C26, 4-Benzyl-1-(mesitylsulfonyl)piperidine]: the melting point lay in the range of 70 to 72 °C. Also, the midpoint of inhibition in data set [2], the IC50, lay at 107 ± 2.09 nM.
The compound `COc1ccc(CNC(=O)CN2CCC(Cc3ccccc3)CC2)cc1` [Compound C33, 2-(4-Benzylpiperidin-1-yl)-N-(4-methoxybenzyl)acetamide] had a melting point of 89 to 91 °C. Moreover, 99.8 ± 1.94 nM corresponded to half-maximal inhibition in data set [2] (IC50).

A word on the LD50: it is the dose at which mortality reaches 50%. The low end stands for greater toxicity, the high end for lower toxicity. The term IC50 denotes the midpoint of a concentration-inhibition curve. The low end stands for greater potency in that assay, the high end for weaker potency in that assay. Broadly, the melting point is the temperature of the solid-liquid transition. One may read the ED50 as the midpoint of the dose-response relation.
